The text below walks through data of patent publication US11129819B2, “Fumarate analogs and uses thereof” (Rigel Pharmaceuticals, Inc., priority 2014, dated 2021).

The test system of assay [1] is NrF2 (Nuclear factor (erythroid-derived 2)-like 2). Kind of assay: NrF2 activation in a whole cell nuclear translocation assay. Type of assay: cell-based. The method, then:
NrF2 Activation in a Whole Cell Nuclear Translocation Assay Compounds were tested in a NrF2 (Nuclear factor (erythroid-derived 2)-like 2) translocation assay by adapting the methods set forth in U.S. Pat. No. 8,101,373, the disclosure of which is incorporated herein by reference.

Assay [2] has as its system experimental autoimmune encephalomyelitis (EAE). Kind of assay: Autoimmune encephalitis (EAE) in vivo assay in mice. Also noted: species or system C57BL/6 mice. The conditions noted are these: dosed at 60 mg/kg beginning on the day of immunization.
[3] abbreviates: read-out: NrF2 translocation assay EC50.
Setting [4] is: reference fumarates, read-out: NrF2 activation EC50.

Structures can show the parent of a compound that is named as a salt. Where two headings read alike, the source gives them in different places.

For `COC(=O)/C=C/n1nn[nH]c1=O` [Compound 1, methyl (E)-3-(5-oxo-4,5-dihydro-1H-tetrazol-1-yl)acrylate], the EC50 in assay [1] (setting [3]) came to 61 µM. Besides, the “onset of disease paralysis” value in assay [2] (60 mg/kg) was “significantly prevented the onset of disease paralysis”; in assay [2] (listed as compound 1, 60 mg/kg) it was “significantly prevents the onset of disease paralysis”.

For the compound `COC(=O)/C=C/n1nnn(C(C)C)c1=O` [Compound 6, methyl (E)-3-(4-isopropyl-5-oxo-4,5-dihydro-1H-tetrazol-1-yl)acrylate], the EC50 in assay [1] (setting [3]) worked out at 7.8 µM. The same measure, in the same setting: for `COC(=O)/C=C/n1nnn(C(=O)N(C)C)c1=O` [Compound 10, Methyl (E)-3-(4-(dimethylcarbamoyl)-5-oxo-4,5-dihydro-1H-tetrazol-1-yl)acrylate] the value was 6.1 µM; for `COC(=O)/C=C/n1nnn(C2CCCC2)c1=O` [Compound 11, methyl (E)-3-(4-cyclopentyl-5-oxo-4,5-dihydro-1H-tetrazol-1-yl)acrylate], 5.4 µM; for `COC(=O)/C=C/n1nnn(C2CCOCC2)c1=O` [Compound 12, methyl (E)-3-(5-oxo-4-(tetrahydro-2H-pyran-4-yl)-4,5-dihydro-1H-tetrazol-1-yl)acrylate], 10.4 µM. As for `COC(=O)/C=C/n1nnn(CC(=O)OC)c1=O` [Compound 14, methyl (E)-3-(4-(2-methoxy-2-oxoethyl)-5-oxo-4,5-dihydro-1H-tetrazol-1-yl)acrylate], the EC50 in assay [1] (setting [3]) turned out to be 6.7 µM. Still for that read-out and setting: then `COC(=O)/C=C/n1nnn(-c2ccccc2)c1=O` [Compound 16, methyl (E)-3-(5-oxo-4-phenyl-4,5-dihydro-1H-tetrazol-1-yl)acrylate], with 1 µM; and `COC(=O)/C=C/n1nnn(/C=C/C(=O)OC)c1=O` [Compound 20, dimethyl 3,3′-(5-oxo-1H-tetrazole-1,4(5H)-diyl)(2E,2′E)-diacrylate], with 0.7 µM; and `COC(=O)/C=C/n1nnn(C2CC2)c1=O` [Compound 21, methyl (E)-3-(4-cyclopropyl-5-oxo-4,5-dihydro-1H-tetrazol-1-yl)acrylate], with 7.2 µM. For the compound `COC(=O)/C=C/C(=O)O` [Monomethyl fumarate, monomethyl fumarate, reference compound], the EC50 in assay [1] (setting [4]) was about 127 µM.

As for `COC(=O)/C=C/C(=O)OC` [dimethyl fumarate, reference compound], the EC50 in assay [1] (setting [4]) is about 7.9 µM.

As a reminder, the EC50 is the concentration giving half of the maximal effect.
